How the values were obtained:
mouse = conditions: subcutaneous injection; cited from earlier work
PC12 cells [1] = assay: GSH measurement in cells (NPM/HPLC); format: cell-based; conditions: GLU (10 mM) alone
Protocol: Cells were seeded at a density of 80,000 cells/cm^2 on poly-D-lysine coated (0.05 mg/ml) 75 cm^2 flasks (5 ml/flask) for GSH measurement. […] After the incubation period, cells were removed from the cultures and homogenized in serine borate buffer (100 mM Tris-HCl, 10 mM boric acid, 5 mM L-serine, 1 mM DETAPAC, pH 7.4). Twenty (20) μl of the diluted cell homogenate were added to 230 μl of serine borate buffer and 750 μl of NPM (1 mM in acetonitrile). The resulting solutions were incubated at room temperature for 5 min. The reaction was stopped by the addition of 5 μl of 2N HCl. The samples were then filtered through a 0.2 μm Acrodisc filter and injected onto the HPLC system.
[…] Values represent means.+−.SD. Statistically different values of *P<0.05 were determined, compared to control. **P<0.001 compared to glutamate-treated group. ***P<0.05 compared to glutamate-treated group.

PC12 cells [2] = assay: MDA measurement in glutamate-exposed cells; format: cell-based; conditions: GLU (10 mM) alone, 24 h
Protocol: MDA measurement: To prepare the solution, 350 μl of straight cell homogenate, 100 μl of 500 ppm BHT (butylated hydroxytoluene), and 550 μl of 10% TCA (trichloroacetic acid) were combined and boiled for 30 min. The tubes were cooled on ice and centrifuged for 10 min at 2500 rpm. Five hundred (500) μl of the supernatant were removed and 500 μl of TBA (thiobarbituric acid) were added. The tubes were boiled again for 30 min, and then cooled on ice. From this solution, 500 μl were removed, added to 1.0 ml of n-butanol, vortexed, and centrifuged for 5 min at 60 g to facilitate a phase separation. The top layer was then filtered through 0.45 μm filters and injected onto a 5 μm C18 column (250×4.6 mm) on a reverse phase HPLC system. The mobile phase consisted of 69.4% 5 mM sodium phosphate buffer (pH=7.0), 30% acetonitrile, and 0.6% THF (tetrahydrofuran). The excitation wavelength was 515 nm; the emission wavelength was 550 nm (Draper H. H. et al., Free Radic Biol Med., 15(4):353-63, 1993).
Cells were plated and grown for 24 hours, and then they were exposed to glutamate (10 mM) in the presence or absence of NAC amide (750 μM). Twenty-four hours later, the cells were harvested and malondialdehyde levels were measured. Values represent means.+−.SD. Statistically different values of *P<0.002 and **P<0.05 were determined, compared to control. ***P<0.05 compared to glutamate-treated group.

| Structure (SMILES) | toxicity relative to morphine (mouse) | GSH Levels (PC12 cells [1]) | MDA Levels (PC12 cells [2]) |
| --- | --- | --- | --- |
| CN1CC[C@]23c4c5ccc(O)c4O[C@H]2C(=O)C=C[C@H]3[C@H]1C5 [Morphinone, morphinone] | 9 times |  |  |
| N[C@@H](CCC(=O)O)C(=O)O [GLU, glutamate, reference compound] |  | 23 ± 4.2 nM/mg protein | 247 ± 26 nM/100 mg protein |
